Results published in patent US7875648B2, “N-(dibenz(b,f)oxepin-10-ylmethyl)-N-methyl-N-prop-2-ynylamine (omigapil) for the treatment of congenital muscular dystrophy or myopathy resulting from collagen VI deficiency” (Santhera Pharmaceuticals (Schweiz) AG, priority 2006, dated 2011).

Tests used:
[1] = test system: glyceraldehyde-3-phosphate dehydrogenase (GAPDH); details: reported in J. Biol. Chem. 273:5821-5828; cited from earlier work
[2] = test system: homozygous col6a1-/- mice (Col6a1-deficient mouse model), diaphragm muscle; experiment: Apoptotic (TUNEL-positive) nuclei in diaphragm muscle of col6a1-/- mice; format: in vivo; details: 5 days
Excerpt: (§1) Homozyguous col6a1−/− mutants lack triple-helical collagen VI resulting in a phenotype that resembles BM/UCMD in human patients with collagen VI deficiency. Specifically, col6a1−/− mice show histological features of myopathy such as fiber necrosis and phagocytosis and a pronounced variation in fiber diameter. Muscles also show signs of stimulated regeneration of fibers and necrotic fibers are particularly frequent in the diaphragm thereby resembling more the clinical picture of UCMD than BM (Bertini E., Pepe G. (2002) Collagen type VI and related disorders: Bethlem myopathy and Ullrich scleroatonic muscular dystrophy Europ. J. Paediatric Neurology 6:193-198). […] This mitochondrial dysfunction might be caused by slight increase in of sarcolemmal calcium influx followed by calcium overload eventually causing opening of the mitochondrial permeability transition pore (MPTP) and finally apoptosis.
The effect of N-(dibenz(b,f)oxepin-10-ylmethyl)-N-methyl-N-prop-2-ynylammonium maleate (omigapil) was tested on the number of apoptotic nuclei in muscle of a Col6a1-deficient mouse model. Starting at 16±4 weeks of age, homozygous col6a1−/− mice were treated with omigapil. For this, omigapil was dissolved in 1% w/v ethanol to a final concentration of 20 μg/ml. Mutant mice received a final dose of 1 mg/kg or 10 mg/kg omigapil given twice daily by gavage following the guidance as described elsewhere (Sagot Y. et al. (2000) An orally active anti-apoptotic molecule (CGP 3466B) preserves mitochondria and enhances survival in an animal model of motoneuron disease. Br. J. Pharmacol. 131:721-728). For comparison col6a1−/− mice received the equivalent amount of vehicle only. After five days of application mice were sacrificed, the diaphragm removed, sectioned and stained for apoptotic nuclei using TUNEL staining. The number of apoptotic nuclei per mm2 area in the diaphragm muscle was determined as described (Irwin W A et al. (2003) Mitochondrial dysfunction and apoptosis in myopathic mice with collagen VI deficiency. Nature Genetics 35:367-371).

[3] = test system: Col6a1-deficient mice, mitochondria in muscle fibers of the diaphragm muscle; experiment: Ultrastructural appearance of mitochondria in diaphragm muscle fibers of Col6a1-deficient mice; format: in vivo, mouse; details: for percentage of myofibers with pathologically altered mitochondria vs vehicle-treated animals: Col6a1-deficient mice, diaphragm, FIG. 2
Excerpt: as §1
The effect of N-(dibenz(b,f)oxepin-10-ylmethyl)-N-methyl-N-prop-2-ynylammonium maleate (omigapil) was tested on the effect to normalize ultrastructural defects in mitochondria of a Col6a1-deficient mouse model. For this, Col6a1-deficient mice were treated with omigapil as described in Example 1.
The ultrastructural appearance of mitochondria in muscle fibers of the diaphragm muscle was determined and quantified as described (Irwin W A et al. (2003) Mitochondrial dysfunction and apoptosis in myopathic mice with collagen VI deficiency. Nature Genetics 35:367-371).

Molecule	binding to glyceraldehyde-3-phosphate dehydrogenase (GAPDH) [1]	number of apoptotic nuclei in diaphragm muscle (TUNEL staining) vs vehicle-treated col6a1-/- mice ([2]; 1 mg/kg twice daily by gavage, N=3, FIG. 1)	number of apoptotic nuclei in diaphragm muscle (TUNEL staining) vs vehicle-treated col6a1-/- mice ([2]; 10 mg/kg twice daily by gavage, N=4, FIG. 1)	number of apoptotic nuclei in omigapil-treated animals relative to wild-type animal ([2]; omigapil-treated, diaphragm muscle)	ultrastructural appearance of mitochondria in muscle fibers of the diaphragm muscle ([3]; Col6a1-deficient mice treated as in Example 1)	percentage of myofibers with pathologically altered mitochondria vs vehicle-treated animals ([3]; 1 mg/kg (animals B1-B2))	percentage of myofibers with pathologically altered mitochondria vs vehicle-treated animals ([3]; 10 mg/kg (animals A1-A3))
C#CCN(C)CC1=Cc2ccccc2Oc2ccccc21 [compound of formula (I), N-(dibenz(b,f)oxepin-10-ylmethyl)-N-methyl-N-prop-2-ynylamine]	binds to glyceraldehyde-3-phosphate dehydrogenase (GAPDH)						
N-(dibenz(b,f)oxepin-10-ylmethyl)-N-methyl-N-prop-2-ynylammonium maleate [omigapil]		significantly reduced	significantly reduced	comparable to the number seen in diaphragm muscle of a wild-type animal	normalized	clearly reduced	clearly reduced
